{
  "source": "patent US9456619B1",
  "about": "“Control of caloric intake” (priority 2000, dated 2016)",
  "key": {"[1]": {"details": "rats, liquid diet ad libitum; effect appeared after first week; cited from earlier work"}, "[2]": {"details": "flavored liquid food, ad libitum; cited from earlier work"}, "[3]": {"excerpt": "To find out, a few days later I began drinking much more water than usual.\nI was already measuring my weight regularly. I used three scales, to ensure that any weight change was not due to a changing scale."}},
  "data": [
    {"molecule": "O=C1NS(=O)(=O)c2ccccc21", "note": "[saccharin]", "values": [
      {"measurement": "weight gain versus same food without saccharin", "setting": "[1]", "value": "gained more weight"}
    ]},
    {"molecule": "CC(=O)OC[C@H]1O[C@@](COC(C)=O)(O[C@H]2O[C@H](COC(C)=O)[C@@H](OC(C)=O)[C@H](OC(C)=O)[C@H]2OC(C)=O)[C@@H](OC(C)=O)[C@@H]1OC(C)=O", "note": "[sucrose octaacetate]", "values": [
      {"measurement": "weight gain versus rats eating unflavored solid food", "setting": "[2]", "value": "gained more weight"}
    ]},
    {"molecule": "O", "note": "[water]", "values": [
      {"measurement": "weight rise", "setting": "[3]; after reducing water intake from 5 to 3 liters/day", "value": "about 0.7 kg"},
      {"measurement": "weight lost", "setting": "[3]; water intake raised to 5 liters/day, over two weeks before weight stabilized", "value": "about 2.8 kg"}
    ]}
  ]
}
